Reference: the OligoGym collection
After the bases stand the sugars from the 5' end (letter, count) and the backbone: PS all phosphorothioate, else s phosphorothioate and o phosphodiester by linkage. Methylation of C is not given here. e = 2'-O-(2-methoxyethyl) (MOE); k = constrained ethyl (cEt); d = 2'-deoxy (DNA); m = 2'-O-methyl

Biological target: HSD17B13
Settings: ASO, HepaRG

Sequence | target mRNA inhibition (1 µM) [%] | also measured
ATGTTCATGGCTTTGC (sugars k3 d10 k3, PS) | 73 | –
TTACCAGAGCATTCAT (sugars k3 d10 k3, PS) | 50 | –
CATCAAGCCCTTTTCA (sugars k3 d10 k3, PS) | 23 | –
ACATAACTTCATAGTG (sugars k3 d10 k3, PS) | 27 | –
ACATACGCATGCGCAG (sugars k3 d10 k3, PS) | 20 | –
ATTTTCAGATCCCGTT (sugars k3 d10 k3, PS) | 67 | –
TGCCAAACCAATGTTT (sugars k3 d9 k3 e1, PS) | 43 | –
ACAATATGGGATGAGG (sugars k3 d10 k3, PS) | 71 | target mRNA inhibition (0.02 µM): 29%; target mRNA inhibition (0.078 µM): 7%; target mRNA inhibition (0.313 µM): 43%; target mRNA inhibition (1.25 µM): 65%; target mRNA inhibition (5 µM): 85%
GAGACATGAGGTTTTG (sugars kkdddddddddkekek, PS) | 49 | –
TTGAGCCTAAAATTGT (sugars k3 d10 k3, PS) | 36 | –
GCTTAGTTCATTGTGA (sugars k3 d10 k3, PS) | 45 | –
TATCAGACTTCTTACG (sugars k3 d10 k3, PS) | 59 | –
ATTCTACACTAATATT (sugars k3 d10 k3, PS) | 0 | –
AATACGACTTCCTTCT (sugars k3 d10 k3, PS) | 26 | –
CTTGATGTAGTGGGAG (sugars k3 d10 k3, PS) | 83 | target mRNA inhibition (0.02 µM): 0%; target mRNA inhibition (0.078 µM): 4%; target mRNA inhibition (0.313 µM): 21%; target mRNA inhibition (1.25 µM): 62%; target mRNA inhibition (5 µM): 80%
ACGCATGCGCAGTGAC (sugars k3 d10 k3, PS) | 52 | –
CCACTGGATGGATTTC (sugars k3 d10 k3, PS) | 68 | –
GGAAUGCTACTTGAAC (sugars k3 d1 m1 d8 k3, PS) | 62 | –
CAGTTTTCCTCATGAT (sugars k3 d10 k3, PS) | 65 | –
ACCACACTAATGAATC (sugars k3 d10 k3, PS) | 54 | –
AATGTAAGAAGCCACG (sugars k3 d10 k3, PS) | 26 | –
CTACUTGAACAGTCTT (sugars k3 d1 m1 d8 k3, PS) | 79 | target mRNA inhibition (0.02 µM): 9%; target mRNA inhibition (0.078 µM): 22%; target mRNA inhibition (0.313 µM): 46%; target mRNA inhibition (1.25 µM): 77%; target mRNA inhibition (5 µM): 76%
GGCAGTAAAGTGCTAA (sugars k3 d10 k3, PS) | 62 | –
TGGGATACTATTCTCC (sugars k3 d10 k3, PS) | 18 | –

Sequence | target mRNA inhibition (1 µM) [%] | also measured
TAAGTATTCCATCTAT (sugars k3 d10 k3, PS) | 31 | –
TTGCAAAATGTGATGC (sugars k3 d10 k3, PS) | 75 | –
CAGAGACATGAGGTTT (sugars k3 d10 k3, PS) | 61 | –
CCATAATCTTGTGCTT (sugars k3 d10 k3, PS) | 32 | –
GTTAGAATAGTCTTCA (sugars k3 d9 k3 e1, PS) | 71 | –
ACAACCCTTAACAAAC (sugars k3 d10 k3, PS) | 26 | –
ATCGATGGAAGAAGTG (sugars k3 d10 k3, PS) | 39 | –
TTGAUCTCTTAGCTGT (sugars k3 d1 m1 d8 k3, PS) | 50 | –
TTACAGCATCAAGACA (sugars kkdddddddddkekek, PS) | 22 | –
TGATATTCTGTGGCAT (sugars kkdddddddddkekek, PS) | 46 | –
CTCATTTAGCAGCTTG (sugars k3 d10 k3, PS) | 70 | target mRNA inhibition (0.02 µM): 1%; target mRNA inhibition (0.078 µM): 10%; target mRNA inhibition (0.313 µM): 46%; target mRNA inhibition (1.25 µM): 65%; target mRNA inhibition (5 µM): 90%
ATAGAGTCGGTCACCT (sugars kkdddddddddkekek, PS) | 56 | –
ATTCATAAGTAGTCTG (sugars k3 d10 k3, PS) | 35 | –
CTGAAATTGATACACC (sugars k3 d1 m1 d8 k3, PS) | 71 | –
GAAACTTGATCTCTTA (sugars kkdddddddddkekek, PS) | 54 | –
ACCCAAGCTACCTCCA (sugars k3 d10 k3, PS) | 9 | –
TTGAGATAAAGCTGCC (sugars k3 d1 m1 d8 k3, PS) | 51 | –
TAAACCTTCCCTGTGT (sugars k3 d1 m1 d8 k3, PS) | 46 | –
TGCCAAGCTTTGTGTC (sugars k3 d10 k3, PS) | 38 | –
GCATAAGAGCCAAACT (sugars k3 d10 k3, PS) | 67 | –
AATGAGGCGGCACTCA (sugars k3 d10 k3, PS) | 20 | –
ATATACTAGGATTAGA (sugars k3 d10 k3, PS) | 33 | –
TGAAGTTAGTATAGTT (sugars k3 d1 m1 d8 k3, PS) | 62 | –
AGCCTAAAATTGTCTA (sugars k3 d10 k3, PS) | 53 | –

Sequence | target mRNA inhibition (1 µM) [%] | also measured
GTTAGAATAGTCTTCA (sugars k3 d10 k3, PS) | 46 | –
CACAGAACCAATATGC (sugars k3 d10 k3, PS) | 54 | –
GAAGATCGGCTGGATA (sugars k3 d10 k3, PS) | 16 | –
TATCAGACTTCTTACG (sugars kkdddddddddkekek, PS) | 32 | –
TGTAAGAGTCAGTATC (sugars k3 d1 m1 d8 k3, PS) | 29 | –
AATACTCCCCAATTGC (sugars k3 d10 k3, PS) | 0 | –
TCTTACATGATTAAGC (sugars k3 d10 k3, PS) | 35 | –
GTGTAGTCCTAGGGAG (sugars k3 d10 k3, PS) | 67 | –
TTGACTAAGGAGCTAG (sugars k3 d10 k3, PS) | 20 | –
CTACATGGATCCAACA (sugars k3 d10 k3, PS) | 5 | –
GCTGCCTGCTGAAACT (sugars k3 d10 k3, PS) | 38 | –
TTAGAGTGAATCATTC (sugars k3 d10 k3, PS) | 69 | –
TATTTAGGGCAAACCT (sugars k3 d10 k3, PS) | 40 | –
GAACAGTTCAACTGAA (sugars k3 d10 k3, PS) | 10 | –
CAGGGTGGTAACGGTG (sugars kkdddddddddkekek, PS) | 49 | –
AGTTATTAGAAGTCAG (sugars k3 d9 k3 e1, PS) | 56 | –
TGTATGAGGTCTCTCA (sugars k3 d10 k3, PS) | 66 | –
TTCTTACGACTTCATC (sugars k3 d10 k3, PS) | 47 | –
CAGAAGTTTTTAAGAG (sugars k3 d10 k3, PS) | 30 | –
GTGTAGTTTGGTGGGC (sugars k3 d10 k3, PS) | 33 | –
TCATAAAAATCGCTGC (sugars k3 d10 k3, PS) | 26 | –
GCAGCATTGATTCGAA (sugars k3 d10 k3, PS) | 63 | –
GAGTTATCTGGTTTGC (sugars k3 d10 k3, PS) | 84 | target mRNA inhibition (0.02 µM): 0%; target mRNA inhibition (0.078 µM): 0%; target mRNA inhibition (0.313 µM): 27%; target mRNA inhibition (1.25 µM): 68%; target mRNA inhibition (5 µM): 91%
